Where two headings read alike, the source gives them in different places.
Columns and labels:
[1] = Solubility of chelate compounds
HEK293 cells = assay: Adsorption of chelate compounds to cells (HPLC and mass spectrometry); assay type: cell-based, human; conditions: for Adsorption HEK293: 50 µM chelate compound, 0, 30 and 90 minutes at 37 °C, % adsorbed relative to time zero
Text: (§1) As a prerequisite for the understanding of the functional attributes of Tb-PCTMB and Eu-QCTME for diagnostics and therapeutic purposes, and for other uses, it is useful to synthesize a series of chelate compounds that contain structural elements of both PCTMB and QCTME and test these compounds for adsorption and permeability to different cell lines. The first approach was to test for adsorption to a normal cell line (HEK293) and to two epithelial cancer cell lines (LNCaP and Caco-2). The second approach, described in this example, involves testing only the compounds that adsorbed in the cancer cell lines and not in the normal cell lines for permeability. Adsorption and permeability of the compounds to epithelial cancer cell lines and a normal cell line was measured through the detection of the compound by HPLC and mass spectrometry.
(§2) Cell cultures. LNCaP cell line is a human prostate carcinoma. Cells were grown in RPMI 1640 Medium supplemented 10% FBS, 2 mM L-glutamine, glucose (2 g/L) augmented with gentamicin (50 μg/mL), penicillin/streptomycin (100 IU/mL/100 μg/mL) and amphotericin B (2.5 μg/mL). Caco-2 cell line is a human colorectal carcinoma. These cells were grown in Eagle's Minimum Essential Medium supplemented with 20% FBS, Earle's BSS, 2 mM L-glutamine, 1.0 mM sodium pyruvate, 0.1 mM nonessential amino acids augmented with gentamicin (50 μg/mL), penicillin/streptomycin (100 IU/mL/100 μg/mL), and amphotericin B (2.5 μg/mL). The human kidney transformed cells HEK293 were grown in Eagle's Minimum Essential Medium (EMEM) supplemented with 10% (v/v) heat-inactivated fetal bovine serum, sodium pyruvate, nonessential amino acids and antibiotics in a humidified 5% CO2 atmosphere at 37° C. Medium and supplements were purchased from Gibco BRL (Grand Island, N.Y.) and all cell lines were obtained from ATCC.
(§3) Detection of chelate compounds for the determination of adsorption. Cells were grown to confluence in T-150 flasks (about 2×10^7 cells). Before treating with chelate compounds, cells were rinsed twice with warm 10 mM HEPES (Gibco BRL, Grand Island N.Y.), removed from the flask, and transferred to a 50-mL conical tube and centrifuged (400×g) for 5 minutes. The resulting cells were treated with individual chelate compounds with 50 µM of chelate compounds in 10 mM HEPES, pH 7.4, 5 mM KCl, 150 mM NaCl, 0.7 mM NaH2PO4 for 0, 30, and 90 minutes at 37 ° C. After treatment, cells were pelleted by centrifugation and the resulting solution was analyzed by a combination of HPLC and mass spectrometry.

LNCaP cells = assay: as above; assay type: cell-based, human; conditions: for Adsorption LNCaP: 50 µM chelate compound, 0, 30 and 90 minutes at 37 °C, % adsorbed relative to time zero
Text: as §1, §2, §3

Caco-2 cells = assay: as above; assay type: cell-based, human; conditions: for Adsorption Caco-2: 50 µM chelate compound, 0, 30 and 90 minutes at 37 °C, % adsorbed relative to time zero
Text: as §1, §2, §3

SMILES | solubility ([1]; <5% methanol, ethanol, or DMSO) [mM] | adsorption in normal cells (HEK293) (HEK293 cells) | Adsorption HEK293 (HEK293 cells) | adsorption in carcinoma cell line LNCaP (LNCaP cells) | Adsorption LNCaP (LNCaP cells) | adsorption in carcinoma cell line Caco-2 (Caco-2 cells) | Adsorption Caco-2 (Caco-2 cells) | solubility [1] [mM] | adsorption in carcinoma cell line Caco-2 (Caco-2 cells; Caco-2)
COP(=O)(O)Cc1ccc2cc(C)ccc2n1 [Compound 1] | > 10 | did not adsorb | 0 (0 = 0-10%) | did not adsorb | 0 (0 = 0-10%) | did not adsorb | 0 (0 = 0-10%) |  | 
COP(=O)(O)Cc1cccc(CP(=O)(O)OC)n1 [Compound 4, [6-(Hydroxy-methoxy-phosphorylmethyl)-pyridin-2-ylmethyl]-phosphonic acid monomethyl ester] | > 10 | adsorbed | ++ (++ = 21-40%) | adsorbed | ++ (++ = 21-40%) | adsorbed | ++ (++ = 21-40%) |  | 
CCOP(=O)(O)Cc1cccc(CP(=O)(O)OCC)n1 [Compound 5, [6-(Hydroxy-ethoxy-phosphorylmethyl)-pyridin-2-ylmethyl]-phosphonic acid monoethyl ester] | > 10 |  | + (+ = 11-20%) |  | + (+ = 11-20%) |  | 0 (0 = 0-10%) |  | 
CCCCOP(=O)(O)Cc1cccc(CP(=O)(O)OCCCC)n1 [Compound 6, [6-(Hydroxy-butoxy-phosphorylmethyl)-pyridin-2-ylmethyl]-phosphonic acid monobutyl ester] | > 10 | adsorbed | +++ (+++ = 41-60%) | adsorbed | +++ (+++ = 41-60%) | adsorbed | +++ (+++ = 41-60%) |  | 
COP(=O)(O)Cc1cc(CP(=O)(O)OC)cc(CP(=O)(O)OC)c1 [Compound 7, [3,5-Bis-(Methoxy-hydroxy-phosphorylmethyl)-benzyl]-phosphonic acid monomethyl ester] | > 10 | did not adsorb | 0 (0 = 0-10%) | did not adsorb | 0 (0 = 0-10%) | did not adsorb | 0 (0 = 0-10%) |  | 
COP(=O)(O)Cc1c(C)c(CP(=O)(O)OC)c(C)c(CP(=O)(O)OC)c1C [Compound 10, [3,5-Bis-(Methoxy-hydroxy-phosphorylmethyl)-2,4,6-trimethyl-benzyl]-phosphonic acid monomethyl ester] | > 10 | did not adsorb | 0 (0 = 0-10%) | did not adsorb | 0 (0 = 0-10%) | did not adsorb | 0 (0 = 0-10%) |  | 
CCOP(=O)(O)Cc1c(C)c(CP(=O)(O)OCC)c(C)c(CP(=O)(O)OCC)c1C [Compound 11, [3,5-Bis-(Ethoxy-hydroxy-phosphorylmethyl)-2,4,6-trimethyl-benzyl]-phosphonic acid monoethyl ester] | > 10 |  | 0 (0 = 0-10%) |  | 0 (0 = 0-10%) |  | 0 (0 = 0-10%) |  | 
CN(C)Cc1cc(CN(C)C)cc(CN(C)C)c1 [Compound 13, (3,5-Bis-dimethylaminomethyl-benzyl)-dimethylamine] | > 10 |  | 0 (0 = 0-10%) |  | 0 (0 = 0-10%) |  | 0 (0 = 0-10%) |  | 
CCCCN(CCCC)Cc1cc(CN(CCCC)CCCC)cc(CN(CCCC)CCCC)c1 [Compound 15, (3,5-Bis-dibutylaminomethyl-benzyl)-dibutyl-amine] |  |  |  |  |  |  |  | < 10 | 
Cc1c(CN(C)C)c(C)c(CN(C)C)c(C)c1CN(C)C [Compound 16, (3,5-Bis-dimethylaminomethyl-2,4,6-trimethyl-benzyl)-dimethyl-amine] | > 10 |  | 0 (0 = 0-10%) |  | 0 (0 = 0-10%) |  | 0 (0 = 0-10%) |  | 
CCN(CC)Cc1c(C)c(CN(CC)CC)c(C)c(CN(CC)CC)c1C [Compound 17, (3,5-Bis-diethylaminomethyl-2,4,6-trimethyl-benzyl)-diethyl-amine] |  |  |  |  |  |  |  | < 10 | 
CCCCN(CCCC)Cc1c(C)c(CN(CCCC)CCCC)c(C)c(CN(CCCC)CCCC)c1C [Compound 18, (3,5-Bis-dibutylaminomethyl-2,4,6-trimethyl-benzyl)-dibutyl-amine] |  |  |  |  |  |  |  | < 10 | 
COP(=O)(O)CNCCCN(CCCNCP(=O)(O)OC)CP(=O)(O)OC [Compound 19, [(Bis-{3-[(hydroxy-methoxy-phosphorylmethyl)-amino]-propyl}-amino)-methyl]-phosphonic acid monomethyl ester] | > 10 | adsorbed | ++ (++ = 21-40%) | adsorbed | ++ (++ = 21-40%) |  | ++ (++ = 21-40%) |  | adsorbed
CCOP(=O)(O)CNCCCN(CCCNCP(=O)(O)OCC)CP(=O)(O)OCC [Compound 20, [(Bis-{3-[(ethoxy-hydroxy-phosphorylmethyl)-amino]-propyl}-amino)-methyl]-phosphonic acid monoethyl ester] | > 10 | adsorbed | ++ (++ = 21-40%) | adsorbed | ++ (++ = 21-40%) |  | ++ (++ = 21-40%) |  | adsorbed
CCN(CC)CCCN(CC)CCCN(CC)CC [Compound 23, N-(3-Diethylamino-propyl)-N,N′,N′-triethyl-propane-1,3-diamine] | > 10 | adsorbed | + (+ = 11-20%) | adsorbed | + (+ = 11-20%) | adsorbed | ++ (++ = 21-40%) |  | 
